From patent EP0584588A1, “Anti-ulcer composition containing imidazole derivative” (NIPPON CHEMIPHAR CO., LTD., priority 1992, dated 1994)
Read-outs that look alike come from different tables or passages of the source.

Key:
HCl-ethanol erosion = HCl-ethanol erosion model (cytoprotective action on gastrointestinal tract); assay type: in vivo, SD rats; conditions: Rattus norvegicus, 0.5 h; oral, 30 min. before HCl-ethanol mixture; total length of erosions; read-out: ED₅₀
Procedure: To a mixture of 2-[(2-Isobutylamino)benzylthio]imidazole (1 g) obtained in (i) above, chloroform (40 ml), and methanol (10 ml) was portionwise added under chilling with ice, m-chloroperbenzoic acid (equivalent molar amount). After completion of the reaction was confirmed using TLC, the reaction mixture was made alkaline by addition of saturated aqueous sodium hydrogen carbonate and extracted with chloroform. The chloroform portion was then treated successively with three portions of 10 ml of 0.1 N aqueous NaOH and one portion of 20 ml of 0.1 N aqueous NaOH to transfer the desired product into the aqueous portions. The obtained four aqueous portions were separately made ammonia-alkaline by addition of 20% aqueous […]. The precipitated crystals were collected, washed sufficiently with ether, and dried to give 0.6 g (yield: 56.5%) of the desired product as a white crystalline powder. […]
SD rats were fested for 24 hours. […] Length (mm) of each erosion was measured, and the total length (mm) of the erosions observed in one rat was calculated. […]

[1] = Stability in acidic conditions (Britten-Robinson buffer, HPLC); assay type: physicochemical
Procedure: The stability of the compound in acidic conditions was determined at 37 °C in Britten-Robinson buffer which had been previously adjusted to pH 3.0, 5.0 or 7.0. The compound was dissolved in this buffer by supersonic waves, and the filtered solution was monitored by high performance liquid chromatography (HPLC) (Tosoh TSK-gel ODS-120T 4.6-250mm, CH₃CN/10 mM phosphate buffer (pH 6.0), 1 ml/min., room temperature (25 °C), detector ultraviolet (UV) 240-250 nm). Half-lives (T1/2) were determined from linear regression of the concentration vs. time (h).

Molecule `CC(C)CNc1ccccc1C[S+]([O-])c1ncc[nH]1` (stereo not shown) [Imidazole derivative A, 2-[(2-Isobutylamino)benzylsulfinyl]imidazole] has an ED50 (HCl-ethanol erosion) of 3.6 mg/kg, a half-life ([1]; britten-robinson buffer, pH 3) of 1.8 min and a half-life ([1]; britten-robinson buffer, pH 5) of 55.8 min. The half-life ([1]; britten-robinson buffer, pH 7) was 3780 min.

For `COc1ccc2[nH]c([S+]([O-])Cc3ncc(C)c(OC)c3C)nc2c1` (stereo not shown) [Omeprazole, reference compound], the half-life ([1]; pH 3.0, 37°C, Britten-Robinson buffer, read-out: (T1/2) (converted)) was 3 min, the half-life ([1]; pH 5.0, 37°C, Britten-Robinson buffer, read-out: (T1/2) (converted)) was 20.4 min and the half-life ([1]; pH 7.0, 37°C, Britten-Robinson buffer, read-out: (T1/2) (converted)) was 1620 min.
